# Assay results reported in patent publication US9404081B2, “Pyruvate kinase activators for use in therapy” (AGIOS PHARMACEUTICALS, INC., priority 2011, dated 2016).
# Tests used:
# Type in all cases: biochemical
# [1] = target: PKR R532W (Homo sapiens, UniProt P30613, R532W); experiment: PKR R532W Single Point Percent Activation Assay; conditions: read-out: Act, % 532W
# Protocol: PKR R532W Single Point Percent Activation Assay
# (§1) A compound described herein was diluted with DMSO and tested at 1 μM concentration. The enzyme was diluted in 1× Buffer: (100 mM KCl, 50 mM Tris 7.5, 5 mM MgCl2, 1 mM DTT, 0.03% BSA). 2 μL of compound solution was first added into wells, and then 180 μL of enzyme solution was added. Assays were assembled except for ADP, and plates were stored for 60 minutes at RT. 20 μL ADP was added to start the assay and assay output was evaluated using OD340 at SpectraMax. The assay was run at room temperature.
# Final concentration: PKR R532W (100 ng/well), Tris pH 7.5 (50 mM), KCl (100 mM), MgCl2 (5 mM), ADP (0.36 mM), PEP (0.1 mM), NADH (180 μM), LDH (0.5 units, Sigma 59023), DTT (1 mM) and BSA (0.03%).
# [2] = target: PKR T384W (Homo sapiens, UniProt P30613, T384W); experiment: PKR T384W Single Point Percent Activation Assay; conditions: read-out: Act. % 384W
# PKR T384W, sequence (P30613 whole entry T384W): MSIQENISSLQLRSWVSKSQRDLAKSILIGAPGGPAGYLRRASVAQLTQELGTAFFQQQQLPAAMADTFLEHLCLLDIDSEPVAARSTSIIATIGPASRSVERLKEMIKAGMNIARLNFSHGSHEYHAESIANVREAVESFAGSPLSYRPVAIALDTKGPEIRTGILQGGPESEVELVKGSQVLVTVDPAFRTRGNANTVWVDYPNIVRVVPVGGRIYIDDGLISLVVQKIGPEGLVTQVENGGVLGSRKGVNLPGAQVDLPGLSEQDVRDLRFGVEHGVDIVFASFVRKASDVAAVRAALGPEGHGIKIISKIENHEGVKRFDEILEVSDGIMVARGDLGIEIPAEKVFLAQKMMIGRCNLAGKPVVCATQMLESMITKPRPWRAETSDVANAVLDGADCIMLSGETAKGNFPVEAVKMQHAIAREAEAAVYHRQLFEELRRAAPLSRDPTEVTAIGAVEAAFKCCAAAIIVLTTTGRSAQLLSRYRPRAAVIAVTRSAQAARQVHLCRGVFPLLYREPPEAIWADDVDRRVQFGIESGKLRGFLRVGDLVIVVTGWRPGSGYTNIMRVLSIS
# Protocol: PKR T384W Single Point Percent Activation Assay
# as §1, with “180 μL enzyme solution” for “180 μL of enzyme solution”
# Final concentration: PKR T384W soluble (300 ng/well), Tris pH 7.5 (50 mM), KCl (100 mM), MgCl2 (5 mM), ADP (0.08 mM), PEP (0.23 mM), NADH (180 μM), LDH (0.5 units, Sigma 59023), DTT (1 mM) and BSA (0.03%).
# [3] = target: PKR R510Q (Homo sapiens, UniProt P30613, R510Q); experiment: PKR R510Q Single Point Percent Activation Assay; conditions: read-out: Act. % 510Q
# PKR R510Q, sequence (P30613 whole entry R510Q): as the sequence (P30613 whole entry T384W) above, with W384T, R510Q counted along it
# Protocol: PKR R510Q Single Point Percent Activation Assay
# as §1
# Final concentration: PKR R510Q (40 ng/well), Tris pH 7.5 (50 mM), KCl (100 mM), MgCl2 (5 mM), ADP (0.2 mM), PEP (0.11 mM), NADH (180 μM), LDH (0.5 units, Sigma 59023), DTT (1 mM) and BSA (0.03%).
# [4] = target: PKR wt (Homo sapiens, UniProt P30613); experiment: PKR WT Single Point Percent Activation Assay
# PKR wt, sequence (P30613 whole entry): as the sequence (P30613 whole entry T384W) above, with W384T counted along it
# Protocol: PKR WT Single Point Percent Activation Assay
# as §1
# Final concentration: PKR wt (100 ng/well), Tris pH 7.5 (50 mM), KCl (100 mM), MgCl2 (5 mM), ADP (0.48 mM), PEP (0.15 mM), NADH (180 μM), LDH (0.5 units, Sigma 59023), DTT (1 mM) and BSA (0.03%).
# PKR R532W, sequence (P30613 whole entry R532W): as the sequence (P30613 whole entry T384W) above, with W384T, R532W counted along it
SMILES,activation at 1 µM [1],activation at 1 µM [2],activation at 1 µM [3],activation at 1 µM [4]
C[C@H]1CN(C(=O)c2ccc(NS(=O)(=O)c3cccc4cccnc34)cc2)CCN1Cc1ccccc1,101 to 500%,101 to 500%,101 to 500%,101 to 500%
C[C@H]1CN(Cc2ccccc2)CCN1C(=O)c1ccc(NS(=O)(=O)c2cccc3cccnc23)cc1,101 to 500%,101 to 500%,101 to 500%,101 to 500%
C[C@@H]1CN(Cc2ccccc2)CCN1C(=O)c1ccc(NS(=O)(=O)c2cccc3cccnc23)cc1,101 to 500%,101 to 500%,101 to 500%,101 to 500%
C[C@H]1CN(Cc2ccccc2F)CCN1C(=O)c1ccc(NS(=O)(=O)c2cccc3cccnc23)cc1,101 to 500%,101 to 500%,1 to 100%,101 to 500%
C[C@H]1CN(CC2CC2)CCN1C(=O)c1ccc(NS(=O)(=O)c2cccc3cccnc23)cc1,101 to 500%,1 to 100%,1 to 100%,101 to 500%
C[C@H]1CN(Cc2cc(F)c(F)cc2F)CCN1C(=O)c1ccc(NS(=O)(=O)c2cccc3cccnc23)cc1,1 to 100%,101 to 500%,1 to 100%,1 to 100%
COc1cccc(CN2CCN(C(=O)c3ccc(NS(=O)(=O)c4cccc5cccnc45)cc3)[C@@H](C)C2)c1OC,1 to 100%,101 to 500%,1 to 100%,101 to 500%
C[C@@H]1CN(CC2CCCO2)CCN1C(=O)c1ccc(NS(=O)(=O)c2cccc3cccnc23)cc1 (some centres unmarked),101 to 500%,1 to 100%,101 to 500%,101 to 500%
C[C@@H]1CN(Cc2cc(F)c(F)c(F)c2)CCN1C(=O)c1ccc(NS(=O)(=O)c2cccc3cccnc23)cc1,1 to 100%,1 to 100%,101 to 500%,1 to 100%
C[C@@H]1CN(Cc2ccccc2F)CCN1C(=O)c1ccc(NS(=O)(=O)c2cccc3cccnc23)cc1,101 to 500%,101 to 500%,101 to 500%,101 to 500%
C[C@@H]1CN(CC2CCCCC2)CCN1C(=O)c1ccc(NS(=O)(=O)c2cccc3cccnc23)cc1,101 to 500%,1 to 100%,101 to 500%,101 to 500%
C[C@H]1CN(Cc2ccc(F)cc2)CCN1C(=O)c1ccc(NS(=O)(=O)c2cccc3cccnc23)cc1,1 to 100%,101 to 500%,101 to 500%,101 to 500%
C[C@H]1CN(CC2CCCCC2)CCN1C(=O)c1ccc(NS(=O)(=O)c2cccc3cccnc23)cc1,101 to 500%,1 to 100%,1 to 100%,1 to 100%
C[C@H]1CN(CC2CCCCO2)CCN1C(=O)c1ccc(NS(=O)(=O)c2cccc3cccnc23)cc1 (some centres unmarked),1 to 100%,1 to 100%,1 to 100%,1 to 100%
C[C@@H]1CN(CC2CCCCO2)CCN1C(=O)c1ccc(NS(=O)(=O)c2cccc3cccnc23)cc1 (some centres unmarked),101 to 500%,101 to 500%,1 to 100%,101 to 500%
O=C(c1ccc(NS(=O)(=O)c2cccc3cccnc23)cc1)N1CCN(Cc2ccc(F)cc2)c2ccccc21,1 to 100%,1 to 100%,1 to 100%,1 to 100%
CCOC(=O)N1CCN(C(=O)c2ccc(NS(=O)(=O)c3cccc4cccnc34)cc2)c2ccccc21,101 to 500%,1 to 100%,101 to 500%,101 to 500%
O=C(c1ccc(NS(=O)(=O)c2cccc3cccnc23)cc1)N1CCN(Cc2ccc(F)cc2)C[C@@H]1c1ccccc1,1 to 100%,1 to 100%,1 to 100%,1 to 100%
C[C@H]1CN(C(=O)O[C@@H]2CCOC2)CCN1C(=O)c1ccc(NS(=O)(=O)c2cccc3cccnc23)cc1,101 to 500%,101 to 500%,1 to 100%,101 to 500%

# The next lines start with the values.
activation at 1 µM [1],activation at 1 µM [2],activation at 1 µM [3],activation at 1 µM [4],SMILES
101 to 500%,1 to 100%,1 to 100%,1 to 100%,C[C@@H]1CN(Cc2cc(F)cc(F)c2F)CCN1C(=O)c1ccc(NS(=O)(=O)c2cccc3cccnc23)cc1
1 to 100%,101 to 500%,1 to 100%,1 to 100%,C[C@H]1CN(Cc2cc(F)c(F)c(F)c2)CCN1C(=O)c1ccc(NS(=O)(=O)c2cccc3cccnc23)cc1
1 to 100%,101 to 500%,101 to 500%,1 to 100%,CC(c1ccc(Cl)c(F)c1)N1CCN(C(=O)c2ccc(NS(=O)(=O)c3cccc4cccnc34)cc2)[C@H](C)C1 (some centres unmarked)
1 to 100%,101 to 500%,101 to 500%,1 to 100%,CC(c1cc(F)c(F)c(F)c1)N1CCN(C(=O)c2ccc(NS(=O)(=O)c3cccc4cccnc34)cc2)[C@H](C)C1 (some centres unmarked)
1 to 100%,1 to 100%,101 to 500%,1 to 100%,CC(c1c(F)cccc1F)N1CCN(C(=O)c2ccc(NS(=O)(=O)c3cccc4cccnc34)cc2)[C@H](C)C1 (some centres unmarked)
1 to 100%,1 to 100%,1 to 100%,101 to 500%,CC(c1ccc(F)cc1F)N1CCN(C(=O)c2ccc(NS(=O)(=O)c3cccc4cccnc34)cc2)[C@H](C)C1 (some centres unmarked)
1 to 100%,1 to 100%,1 to 100%,1 to 100%,CC[C@H]1CN(C(C)c2cc(F)cc(F)c2)CCN1C(=O)c1ccc(NS(=O)(=O)c2cccc3cccnc23)cc1 (some centres unmarked)
1 to 100%,1 to 100%,1 to 100%,1 to 100%,CC[C@H]1CN(C(C)c2cc(F)c(F)c(F)c2)CCN1C(=O)c1ccc(NS(=O)(=O)c2cccc3cccnc23)cc1 (some centres unmarked)
101 to 500%,101 to 500%,1 to 100%,1 to 100%,C[C@H]1CN(Cc2c(F)cc(F)cc2F)CCN1C(=O)c1ccc(NS(=O)(=O)c2cccc3cccnc23)cc1
101 to 500%,101 to 500%,1 to 100%,101 to 500%,CC(c1c(F)cc(F)cc1F)N1CCN(C(=O)c2ccc(NS(=O)(=O)c3cccc4cccnc34)cc2)[C@H](C)C1 (some centres unmarked)
101 to 500%,1 to 100%,101 to 500%,101 to 500%,CC(c1cc(F)c(F)cc1F)N1CCN(C(=O)c2ccc(NS(=O)(=O)c3cccc4cccnc34)cc2)[C@H](C)C1 (some centres unmarked)
101 to 500%,101 to 500%,1 to 100%,101 to 500%,CC(c1ccc(F)cc1F)N1CCN(C(=O)c2ccc(NS(=O)(=O)c3cccc4cccnc34)cc2)[C@@H](C)C1 (some centres unmarked)
1 to 100%,1 to 100%,1 to 100%,1 to 100%,CC(c1cc(F)cc(F)c1)N1CCN(C(=O)c2ccc(NS(=O)(=O)c3cccc4cccnc34)cc2)[C@@H](C)C1 (some centres unmarked)
101 to 500%,101 to 500%,101 to 500%,101 to 500%,CC(c1ccc(F)cc1)N1CCN(C(=O)c2ccc(NS(=O)(=O)c3cccc4cccnc34)cc2)[C@@H](C)C1 (some centres unmarked)
101 to 500%,101 to 500%,101 to 500%,101 to 500%,CC(c1c(F)cc(F)cc1F)N1CCN(C(=O)c2ccc(NS(=O)(=O)c3cccc4cccnc34)cc2)[C@@H](C)C1 (some centres unmarked)
101 to 500%,101 to 500%,1 to 100%,101 to 500%,CC(c1cc(F)c(F)cc1F)N1CCN(C(=O)c2ccc(NS(=O)(=O)c3cccc4cccnc34)cc2)[C@@H](C)C1 (some centres unmarked)
